From ChEMBL document CHEMBL1126333, “Conversion of NSAIDS into balanced dual inhibitors of cyclooxygenase and 5-lipoxygenase” (Bioorg Med Chem Lett, 1992)

How the values were obtained:
[1] = molecular target: T1, Cyclooxygenase (Rattus norvegicus, UniProt P35355+Q63921); assay: In vitro inhibitory activity against Cyclooxygenase was determined; assay type: protein assay
T1 sequence (P35355 whole entry): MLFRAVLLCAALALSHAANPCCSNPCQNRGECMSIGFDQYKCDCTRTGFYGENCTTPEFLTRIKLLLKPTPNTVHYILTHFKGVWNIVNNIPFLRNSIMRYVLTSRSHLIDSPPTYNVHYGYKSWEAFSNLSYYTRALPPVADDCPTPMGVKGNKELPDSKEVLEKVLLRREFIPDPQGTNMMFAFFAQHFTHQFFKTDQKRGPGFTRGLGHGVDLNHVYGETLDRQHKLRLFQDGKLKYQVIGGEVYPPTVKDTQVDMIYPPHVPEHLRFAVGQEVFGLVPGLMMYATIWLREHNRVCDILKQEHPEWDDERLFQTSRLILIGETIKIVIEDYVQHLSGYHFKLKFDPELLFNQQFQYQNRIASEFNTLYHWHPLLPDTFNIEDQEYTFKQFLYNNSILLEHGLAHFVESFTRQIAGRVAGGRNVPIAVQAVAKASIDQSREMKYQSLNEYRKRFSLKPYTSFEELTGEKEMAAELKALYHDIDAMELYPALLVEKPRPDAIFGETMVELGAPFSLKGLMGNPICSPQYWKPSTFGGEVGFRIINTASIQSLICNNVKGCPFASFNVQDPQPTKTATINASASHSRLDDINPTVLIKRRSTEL
T1 sequence (Q63921 whole entry): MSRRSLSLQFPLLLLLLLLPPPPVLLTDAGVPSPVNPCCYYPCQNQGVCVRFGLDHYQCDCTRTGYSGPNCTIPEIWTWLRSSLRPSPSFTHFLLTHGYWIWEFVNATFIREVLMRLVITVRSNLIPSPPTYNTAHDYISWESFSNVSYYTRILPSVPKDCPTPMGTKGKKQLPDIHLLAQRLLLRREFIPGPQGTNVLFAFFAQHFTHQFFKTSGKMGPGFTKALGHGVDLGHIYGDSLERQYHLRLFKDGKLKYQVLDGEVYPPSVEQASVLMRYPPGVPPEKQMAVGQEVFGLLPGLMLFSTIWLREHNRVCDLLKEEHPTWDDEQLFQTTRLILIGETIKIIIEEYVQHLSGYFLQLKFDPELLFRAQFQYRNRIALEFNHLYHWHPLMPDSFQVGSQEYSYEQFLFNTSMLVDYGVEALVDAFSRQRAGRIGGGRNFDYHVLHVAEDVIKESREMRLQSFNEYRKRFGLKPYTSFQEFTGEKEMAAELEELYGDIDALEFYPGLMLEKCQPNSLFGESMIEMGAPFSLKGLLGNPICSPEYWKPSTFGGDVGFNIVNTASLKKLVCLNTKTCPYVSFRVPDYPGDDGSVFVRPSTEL

[2] = molecular target: T2, Polyunsaturated fatty acid 5-lipoxygenase (Rattus norvegicus) (UniProt P12527); assay: In vitro inhibitory activity against 5-lipoxygenase was determined at 16 uM
T2 sequence (whole entry): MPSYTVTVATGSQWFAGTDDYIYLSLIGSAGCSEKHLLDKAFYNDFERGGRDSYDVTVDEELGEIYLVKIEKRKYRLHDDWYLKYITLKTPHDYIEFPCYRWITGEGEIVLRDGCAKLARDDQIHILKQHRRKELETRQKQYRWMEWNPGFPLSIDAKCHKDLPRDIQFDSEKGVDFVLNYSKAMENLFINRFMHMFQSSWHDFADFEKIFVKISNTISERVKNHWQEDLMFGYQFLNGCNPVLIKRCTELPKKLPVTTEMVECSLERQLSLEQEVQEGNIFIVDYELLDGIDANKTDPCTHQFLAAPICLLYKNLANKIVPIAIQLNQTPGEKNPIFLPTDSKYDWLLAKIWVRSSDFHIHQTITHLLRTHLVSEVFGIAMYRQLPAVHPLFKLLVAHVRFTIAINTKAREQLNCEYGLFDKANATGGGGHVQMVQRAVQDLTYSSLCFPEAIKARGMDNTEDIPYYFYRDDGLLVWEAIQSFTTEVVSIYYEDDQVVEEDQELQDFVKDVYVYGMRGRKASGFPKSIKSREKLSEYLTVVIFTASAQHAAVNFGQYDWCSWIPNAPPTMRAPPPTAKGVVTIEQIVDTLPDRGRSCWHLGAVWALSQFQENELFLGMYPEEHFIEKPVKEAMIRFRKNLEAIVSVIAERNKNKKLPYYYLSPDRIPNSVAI

[3] = molecular target: Cyclooxygenase (Rattus norvegicus) (UniProt P35355+Q63921); assay: In vitro inhibitory activity against Cyclooxygenase was determined at 16 uM; assay type: protein assay
[4] = molecular target: T3, Polyunsaturated fatty acid 5-lipoxygenase (Rattus norvegicus, UniProt P12527); assay: In vitro inhibitory activity against 5-lipoxygenase was determined
T3 sequence (P12527 whole entry): T2 sequence (whole entry)

Row | inhibition [2] | inhibition [3] | SMILES | IC50 [1] | IC50 [4]
1 | – | – | FC(F)(F)c1cccc(Nc2ccccc2-c2n[nH]c(=S)o2)c1 | 270 nM | –
2 | – | – | FC(F)(F)c1cccc(Nc2ccccc2-c2n[nH]c(=S)s2)c1 | 850 nM | –
3 | 100% | < 40% | Oc1nnc(-c2ccccc2Nc2cccc(C(F)(F)F)c2)s1 | – | –
4 | < 40% | < 40% | Cc1cccc(Nc2ccccc2-c2nnc(O)o2)c1C | – | –
5 | – | – | FC(F)(F)c1cccc(Nc2ncccc2-c2nnc(S)o2)c1 | 190 nM | 990 nM
6 | – | – | Cc1ccc(Cl)c(Nc2ccccc2-c2nnc(S)s2)c1Cl | 1750 nM | –
7 | – | – | Cc1ccc(Cl)c(Nc2ccccc2-c2nnc(S)o2)c1Cl | 700 nM | –
8 | < 40% | < 40% | Cc1ccc(Cl)c(Nc2ccccc2-c2nnc(O)o2)c1Cl | – | –
